Source: patent US20260217701A1, “SELECTIVE BET INHIBITORS AND USES THEREOF” (Tay Therapeutics Limited, priority 2022, published 2026)

Tested on: idiopathic pulmonary fibrosis (bleomycin)
Experiment: Bleomycin IPF model: lung histology, Masson's Trichrome with Ashcroft scoring
Assay type: in vivo, C57BI/6J mice
Conditions: for Ashcroft scores relative to IPF control group: Day 21
Experimental: Animals were acclimated for two weeks prior to study initiation, and were randomized into the experimental groups outlined in Table 32. Intratracheal (IT) administration of Bleo or PBS control was conducted at the start of the study (Day 0). […] Following administration of Bleo, animals (n=10/group) were included in the study if they met the following guidelines on Day 7: […] A resection of the right lung was weighed and homogenized to determine total hydroxyproline levels by colorimetric assay, and the remaining lung lysate was saved for future analyses. For the morphological assessments, the left lung was inflation-fixed at 25 cm of water pressure with 4% paraformaldehyde in PBS for 1 minute, processed, and then sectioned. Morphological analysis of the lung was conducted using H&E-stained slides. Additional histologic stains for morphological analyses included Masson's Trichrome staining with Ashcroft scoring to determine severity of fibrosis.

[1] = Bleo + Compound A (1 mg/kg) OG QOD from D7
[2] = Bleo + Compound A (3 mg/kg) OG QOD from D7
[3] = Bleo + Compound A (10 mg/kg) OG QOD from D7

Cn1cc(-c2ccccc2)c(-c2cn(C)c(=O)c3[nH]c(-c4cnn(C(F)(F)F)c4)cc23)cc1=O [Compound A, 6-methyl-4-(1-methyl-2-oxo-5-phenyl-1,2-dihydropyridin-4-yl)-2-(1-(trifluoromethyl)-1H-pyrazol-4-yl)-1,6-dihydro-7H-pyrrolo[2,3-c]pyridin-7-one]
Ashcroft Scoring, Max [1]: 7
Ashcroft Scoring, Mean [1]: 5.25
Ashcroft Scoring, Min [1]: 4
Ashcroft Scoring, Max [2]: 5
Ashcroft Scoring, Mean [2]: 4.416
Ashcroft Scoring, Min [2]: 3
Ashcroft Scoring, Max [3]: 5
Ashcroft Scoring, Mean [3]: 3.708
Ashcroft Scoring, Min [3]: 2
Ashcroft scores relative to IPF control group (1, 3, 10 mg/kg): decreased Ashcroft scores
Ashcroft scores relative to IPF control group (Group 5, 10 mg/kg): significantly reduced Ashcroft scores
Fibrosis in lung tissue (Masson's Trichrome) compared to Group 2 (Bleo+Saline) (Group 5 (Compound A 10) and Group 6 (Pirfenidone)): qualitatively diminished
